Consider 8 molecules from PubChem BioAssay (NCI).

Some test systems named below: SK-OV-3 ovarian; M14 melanoma; CAKI-1 renal; SF-295 CNS; OVCAR-8 ovarian; IGROV1 ovarian; HCT-15 colon; SF-539 CNS; SF-268 CNS; OVCAR-4 ovarian.
Common to all, as to assay: DTP human tumour cell line panel, 48 h

SMILES strings stand for the structures.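 In this assay, cells in 96-well plates receive the compound at five concentrations for 48 hours. Endpoints are linearly interpolated between the surrounding concentrations. GI50 = concentration required for 50% inhibition of growth. TGI denotes the concentration required for complete inhibition of growth.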

Usually GI50 stands for the concentration that inhibits growth by half. For orientation: TGI means the concentration at which net growth stops. On to `C=C(C)[C@@H]1CC[C@]2(C)[C@H](CC=C3[C@@H]4[C@H](C)[C@@H](C)CC[C@]4(CO)CC[C@]32C)[C@@]1(C)CCCN`, for which the GI50 with SK-OV-3 ovarian is 4.42 µM; in the experiment with M14 melanoma, 846 nM; with CAKI-1 renal it was 1690 nM; with SF-295 CNS, 847 nM; in the experiment with OVCAR-8 ovarian, 1160 nM; in the experiment with IGROV1 ovarian, 885 nM. Moreover, the GI50 with HCT-15 colon was 839 nM; in the experiment on SF-539 CNS, 945 nM; in the experiment on SF-268 CNS, 1220 nM; in the experiment on OVCAR-4 ovarian, 0.86 µM. Besides, the TGI in the experiment with SK-OV-3 ovarian was 12 µM; in the experiment on M14 melanoma, 1.76 µM; in the experiment on CAKI-1 renal it was 5.58 µM; in the experiment on SF-295 CNS, 1.58 µM; in the experiment on OVCAR-8 ovarian, 2.8 µM; with IGROV1 ovarian it was 1.67 µM. Besides, the TGI is 1.76 µM in the experiment on HCT-15 colon, 1.73 µM in the experiment on SF-539 CNS, 2.69 µM with SF-268 CNS and 2.85 µM in the experiment on OVCAR-4 ovarian.
In the case of `CCOC(=O)NC(=O)c1cn(C2OC(CO)C(O)C2O)c(=O)[nH]c1=O` (stereo not given), the TGI with SK-OV-3 ovarian, with M14 melanoma, in the experiment on CAKI-1 renal, with SF-295 CNS, in the experiment with OVCAR-8 ovarian and in the experiment on IGROV1 ovarian was greater than 100 µM throughout. Also, the TGI with HCT-15 colon, with SF-539 CNS, with SF-268 CNS and in the experiment with OVCAR-4 ovarian was greater than 100 µM in each case.
`O=C(O)c1ccc2cccnc2c1O`: the GI50 is 1.7 µM in the experiment on SK-OV-3 ovarian; 1530 nM in the experiment on M14 melanoma; 2160 nM in the experiment on CAKI-1 renal; 52.1 nM with SF-295 CNS; 1270 nM in the experiment on OVCAR-8 ovarian; 1380 nM with IGROV1 ovarian. In addition, the GI50 is 994 nM with HCT-15 colon, 1190 nM in the experiment with SF-539 CNS, 999 nM in the experiment on SF-268 CNS and 0.411 µM in the experiment on OVCAR-4 ovarian. Moreover, the TGI in the experiment with SK-OV-3 ovarian was 4.89 µM; in the experiment on M14 melanoma, 26.6 µM; in the experiment on CAKI-1 renal it was 13.8 µM; with SF-295 CNS, 0.474 µM; in the experiment on OVCAR-8 ovarian, greater than 59.1 µM; with IGROV1 ovarian, 25.8 µM. Further, the TGI in the experiment on HCT-15 colon is greater than 100 µM; with SF-539 CNS, 12.8 µM; with SF-268 CNS, 98.5 µM; in the experiment with OVCAR-4 ovarian, greater than 100 µM.
Consider `O[C@H](CN1CC1)[C@@H](O)CN1CC1`, for which the GI50 with SK-OV-3 ovarian is 4.91 µM; in the experiment with M14 melanoma, 3770 nM; in the experiment with CAKI-1 renal, 423 nM; with SF-295 CNS, 382 nM; in the experiment on OVCAR-8 ovarian, 3750 nM; in the experiment with IGROV1 ovarian it was 10700 nM. The GI50 with HCT-15 colon was 10600 nM; in the experiment on SF-539 CNS, 2580 nM; in the experiment with SF-268 CNS, 2600 nM; with OVCAR-4 ovarian, 15.4 µM. Moreover, the TGI in the experiment on SK-OV-3 ovarian is 29.9 µM; with M14 melanoma, 22.3 µM; in the experiment with CAKI-1 renal, 2.85 µM; in the experiment with SF-295 CNS, 1.71 µM; with OVCAR-8 ovarian it was greater than 100 µM; with IGROV1 ovarian, 33.3 µM. Moreover, the TGI in the experiment with HCT-15 colon was 88.9 µM; in the experiment with SF-539 CNS it was 15.5 µM; in the experiment on SF-268 CNS it was 30.8 µM; with OVCAR-4 ovarian, greater than 100 µM.
Regarding `COc1cccc2ccc3c(c12)C(=O)OC31CCc2c(C)cccc21` (stereo not given), the TGI with SK-OV-3 ovarian, in the experiment with M14 melanoma, in the experiment on CAKI-1 renal, with SF-295 CNS, in the experiment on OVCAR-8 ovarian and in the experiment on IGROV1 ovarian was greater than 46.4 µM each time. In addition, the total growth inhibition concentration (TGI) in the experiment on HCT-15 colon was greater than 46.4 µM; in the experiment on SF-539 CNS it was greater than 100 µM; with SF-268 CNS, greater than 46.4 µM; with OVCAR-4 ovarian, greater than 46.4 µM.
As for `CCC(=O)OC1=CN2C(=NC(c3ccc(N)cc3)=CC2c2cc(OC)c(OC)c(OC)c2)S1` (stereo not given), the GI50 in the experiment with SK-OV-3 ovarian was 3.45 µM; in the experiment with M14 melanoma, 4180 nM; in the experiment on CAKI-1 renal, 2910 nM; with SF-295 CNS, 3480 nM; with OVCAR-8 ovarian, 3390 nM; with IGROV1 ovarian, 2310 nM. The GI50 with HCT-15 colon was 2470 nM; with SF-539 CNS, 2120 nM; in the experiment with SF-268 CNS, 3570 nM; in the experiment on OVCAR-4 ovarian, 4.14 µM. Also, the TGI came to 13 µM in the experiment with SK-OV-3 ovarian; 17.6 µM in the experiment on M14 melanoma; 11.2 µM in the experiment with CAKI-1 renal; 13.1 µM in the experiment with SF-295 CNS; 22.3 µM in the experiment on OVCAR-8 ovarian; 6.63 µM in the experiment on IGROV1 ovarian. In addition, the TGI in the experiment with HCT-15 colon was determined as 29.6 µM; with SF-539 CNS, 6.01 µM; in the experiment with SF-268 CNS, 14.4 µM; in the experiment on OVCAR-4 ovarian it was 31.9 µM.
Consider `Cc1nc2sc(C(=O)Nc3cccc(Cl)c3C)c(N)c2cc1C(C)O` (stereo not given), for which the GI50 in the experiment with SK-OV-3 ovarian was 0.382 µM; in the experiment with M14 melanoma, 341 nM; with CAKI-1 renal, 334 nM; in the experiment with SF-295 CNS it was 119 nM; with OVCAR-8 ovarian, 396 nM; in the experiment with IGROV1 ovarian, 414 nM. Further, the GI50 was 91 nM in the experiment with HCT-15 colon, 181 nM with SF-539 CNS, 5750 nM in the experiment with SF-268 CNS and 3.45 µM in the experiment on OVCAR-4 ovarian. Also, the TGI in the experiment with SK-OV-3 ovarian is greater than 61 µM; in the experiment with M14 melanoma it was greater than 100 µM; with CAKI-1 renal, greater than 100 µM; with SF-295 CNS it was greater than 41.6 µM; in the experiment on OVCAR-8 ovarian it was greater than 71.7 µM; in the experiment with IGROV1 ovarian, greater than 69.6 µM. Besides, the TGI in the experiment with HCT-15 colon was greater than 39.6 µM; in the experiment on SF-539 CNS, 1.9 µM; in the experiment on SF-268 CNS, greater than 82.2 µM; in the experiment on OVCAR-4 ovarian it was greater than 68.4 µM.
Turning to `CCCCCCCCCCCCCCC(O)C1CCC(C(O)CCC(O)CCCCCC(O)CC2=CC(C)OC2=O)O1` (stereo not given), the TGI with SK-OV-3 ovarian worked out at 15 µM; in the experiment on M14 melanoma it was 22.8 µM; in the experiment on CAKI-1 renal, 20.8 µM; in the experiment with SF-295 CNS, 10.3 µM; in the experiment on OVCAR-8 ovarian, 14.8 µM; in the experiment with IGROV1 ovarian it was 18.6 µM. Further, the TGI in the experiment on HCT-15 colon came to 5.25 µM; with SF-539 CNS, 17.8 µM; in the experiment on SF-268 CNS, 12.2 µM; in the experiment with OVCAR-4 ovarian, 8.89 µM.
